Laboratory results from US20240307487A1 (priority 2020, published 2024).
Where a SMILES comes first, the peptide text is derived from it.

Columns and labels:
A(H1N1)pdm09 virus [1] = assay type: cell-based
A(H1N1)pdm09 virus [2] = system: A(H1N1)pdm09 virus
A(H1N1)pdm09 virus [3] = system: A(H1N1)pdm09 virus; remark: listed apart in the source

CC[C@H](C)[C@H](NC(=O)[C@H](C)NC(=O)CNC(=O)[C@@H](N)CC(N)=O)C(=O)N[C@@H](CS)C(=O)N[C@@H](Cc1c[nH]c2ccccc12)C(=O)NCC(=O)N1CCC[C@H]1C(=O)N[C@@H](CS)C(=O)N1CCC[C@H]1C(=O)N[C@H](C(=O)N[C@@H](C)C(=O)N[C@@H](Cc1ccccc1)C(=O)N[C@@H](CCCNC(=N)N)C(=O)N[C@@H](CCC(N)=O)C(=O)N[C@H](C(=O)NCC(=O)N[C@@H](CC(N)=O)C(=O)N[C@@H](CS)C(=O)NCC(=O)N[C@@H](CCCNC(=N)N)C(=O)N[C@@H](Cc1ccccc1)C(=O)N[C@@H](CCCNC(=N)N)C(=O)N[C@H](C(=O)N[C@@H](CCCNC(=N)N)C(=O)N[C@@H](CS)C(=O)N[C@@H](CS)C(=O)N[C@@H](CCCNC(=N)N)C(=O)N[C@H](C(=O)N[C@@H](CCCNC(=N)N)C(=O)O)[C@@H](C)CC)C(C)C)[C@@H](C)CC)[C@@H](C)O [P9R] (H-NGAICWGPCPTAFRQIGNCGRFRVRCCRIR-OH)
viral RNP release into nuclei (A(H1N1)pdm09 virus [2]): could inhibit viral RNP release into nuclei
inhibition of viral replication, A(H1N1)pdm09 virus (A(H1N1)pdm09 virus [3]): > 20 fold
inhibition of viral replication, SARS-CoV-2 (SARS-CoV-2): 1000 fold
inhibition of P30 and P40 virus replication (A(H1N1)pdm09 virus [1]): could efficiently inhibit P30 and P40 virus replication
